Measurements from PubChem BioAssay (NCI).
Several values for one entry are separate records, joined by “and”; a condition that tells them apart may be missing. Identical values can stand only once.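 Test compounds were applied to cells in 96-well plates for 48 hours at 5 doses. Definition used: TGI = concentration required for complete inhibition of growth.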

Experiments:
Experiment in all cases: NCI-60 cell line screen, 48 h
CCRF-CEM leukemia = tested on: CCRF-CEM leukemia
HCT-116 colon = tested on: HCT-116 colon
KM12 colon = tested on: KM12 colon
MCF7 breast = tested on: MCF7 breast
NCI-H460 lung = tested on: NCI-H460 lung
OVCAR-5 ovarian = tested on: OVCAR-5 ovarian
SF-539 CNS = tested on: SF-539 CNS
SK-OV-3 ovarian = tested on: SK-OV-3 ovarian
T-47D breast = tested on: T-47D breast
TK-10 renal = tested on: TK-10 renal

| SMILES | TGI (CCRF-CEM leukemia) | TGI (HCT-116 colon) | TGI (KM12 colon) | TGI (MCF7 breast) | TGI (NCI-H460 lung) | TGI (OVCAR-5 ovarian) | TGI (SF-539 CNS) | TGI (SK-OV-3 ovarian) [µM] | TGI (T-47D breast) | TGI (TK-10 renal) |
| --- | --- | --- | --- | --- | --- | --- | --- | --- | --- | --- |
| O=C(/C=C/c1ccc(Cl)cc1)c1ccc(Cl)s1 | 83.7 µM | 22.4 µM | > 100 µM | 44.6 µM | > 100 µM | > 100 µM | > 100 µM | > 100 | > 100 µM | > 100 µM |
| CCOP(=O)(/C=C/n1cnc2c(=O)n(C(C)=O)c(N)nc21)OCC | > 100 µM | > 100 µM | > 100 µM | > 100 µM | > 100 µM | > 100 µM | > 100 µM | > 100 | > 100 µM | > 100 µM |
| CC(C)=NNc1ncnc2nc[nH]c12 | > 100 µM | > 75.4 µM | > 100 µM | > 100 µM | 38.9 µM | > 48.4 µM | > 88.9 µM | > 58 | > 79.1 µM | > 100 µM |
| O=C(c1ccccc1)c1ccc2nc3n(c2c1)C(c1c(Cl)cccc1Cl)SC3 (stereo not given) | > 100 µM | 12.8 µM | 19.5 µM | > 100 µM | > 51.9 µM | > 100 µM | > 59.4 µM | > 30.7 | 24.5 µM | > 100 µM |
| O=S(=O)(O)c1ccc2c(N=Nc3c(O)ccc4ccccc34)cccc2c1 | > 100 µM | > 100 µM | > 100 µM | > 100 µM | > 100 µM | > 100 µM | > 100 µM | > 100 | > 100 µM | > 100 µM |
| CCN(CCCl)c1cc(CN(C)C)cc(NC(=O)c2cc(C(=O)Nc3cc(CN(C)C)cc(N(CC)CCCl)c3)n(C)n2)c1 | 0.299 µM | 1.3 µM | 0.703 µM | 1.38 µM | 0.4 µM | 9.36 µM | 1.63 µM | 3.3 | 6.43 µM | 6.17 µM |
| COc1cccc(/C=C2/S/C(=N/Nc3nc(C)c(C(C)=O)s3)NC2=O)c1O | 50.7 µM | > 100 µM | > 100 µM | > 100 µM | > 100 µM | 94.2 µM | > 100 µM | > 100 | 96.5 µM | 94.2 µM |
| CC(N)=O.[Cl][Pt][Cl].[NH-]c1ccn(C2OC(CO)C(O)C2O)c(=O)n1 (stereo not given) | > 100 µM | > 100 µM | > 100 µM | > 100 µM | > 100 µM | > 100 µM | > 100 µM | > 100 | > 100 µM | > 100 µM |
| Clc1ccc(Cn2cc(/C=N/n3cnnc3)c3ccccc32)cc1 | > 100 µM | > 100 µM | > 100 µM | > 100 µM | 75 µM | 42.5 µM | > 100 µM | > 100 | 52.3 µM | 28.7 µM |
| COC(=O)C1(Cc2ccccc2)Cc2c(C)ccc(C)c2C1=O (stereo not given) | > 100 µM | > 100 µM | 42.8 µM | 81.1 µM | > 100 µM | > 100 µM | > 100 µM | > 100 | > 100 µM | > 100 µM |
| Nc1nc2c(c(=O)[nH]1)NC(CCNc1ccc(C(=O)O)cc1)CN2 (stereo not given) | > 100 µM | > 100 µM | > 100 µM | > 100 µM | > 100 µM | > 100 µM | > 100 µM | > 100 | > 100 µM | > 100 µM |
| CN(CCCNC(=O)c1c2ccc3ccccc3c2nn1C)CCCNC(=O)c1c2ccc3ccccc3c2nn1C | 23.6 µM | 28 µM | 23.7 µM | 15.6 µM | 18.4 µM | 25.4 µM | 17.8 µM | 28.4 | 32.2 µM | 18.1 µM |
| Cc1ccc2oc3c(ccc(=O)n3C)c(=O)c2c1 | > 100 µM | > 100 µM | > 100 µM | > 100 µM | > 100 µM | > 100 µM | > 100 µM | > 100 | > 100 µM | > 100 µM |
| Cc1cc(C)nc(NC(=S)Nc2ccc(Cl)cc2)c1 | > 100 µM | > 100 µM | > 100 µM | > 100 µM | > 100 µM | > 100 µM | > 100 µM | > 100 | > 100 µM | > 100 µM |
| CSC1(Cc2ccccn2)C(=O)Nc2cccc([N+](=O)[O-])c21 (stereo not given) | > 100 µM | > 100 µM | > 100 µM | > 100 µM | > 100 µM | > 100 µM | > 100 µM | > 100 | > 100 µM | > 100 µM |
| O=c1[nH]nc(Cc2ccccc2)n1C1CC1 | > 100 µM | > 100 µM | > 100 µM | > 100 µM | > 100 µM | > 100 µM | > 100 µM | > 100 | > 100 µM | > 100 µM |
| C=C(Cl)C(Cl)(CBr)CCC(Br)C(C)(C)Cl (stereo not given) | 45.6 µM and 35 µM and > 100 µM | 1.77 µM and 1.61 µM and 5.75 µM | 3.57 µM and 2.83 µM and 6.38 µM | 2.83 µM and 2.09 µM and 8.1 µM | 3.66 µM and 2.93 µM and 5.82 µM | 8.38 µM and 4.14 µM and 29.8 µM | 1.12 µM and 2.69 µM and 3.68 µM | 62.7 | 2.99 µM and 5.16 µM and 1.25 µM | 3.64 µM and 3.87 µM and 7.61 µM |
| COc1cccc(Nc2nc(NS(=O)(=O)c3cc(C)c(Cl)cc3S)n[nH]2)c1 | > 100 µM | > 100 µM | > 100 µM | > 100 µM | > 100 µM | > 100 µM | > 100 µM | > 100 | > 100 µM | > 100 µM |

| SMILES | TGI (CCRF-CEM leukemia) | TGI (HCT-116 colon) | TGI (KM12 colon) | TGI (MCF7 breast) | TGI (NCI-H460 lung) | TGI (OVCAR-5 ovarian) | TGI (SF-539 CNS) | TGI (SK-OV-3 ovarian) [µM] | TGI (T-47D breast) | TGI (TK-10 renal) |
| --- | --- | --- | --- | --- | --- | --- | --- | --- | --- | --- |
| CC(=O)Nc1sccc1S(=O)(=O)c1ccc(Cl)cc1 | > 100 µM | > 100 µM | > 100 µM | > 100 µM | > 100 µM | > 100 µM | > 100 µM | > 100 | > 100 µM | > 100 µM |
| Cn1c(SCc2c[nH]c3ccccc23)nnc1-c1ccc(Cl)cc1Cl | 45.4 µM | 93 µM | 25.2 µM | 84.9 µM | 26.3 µM | 86.7 µM | 17.7 µM | 59.4 | 43.2 µM | 47.2 µM |
| COc1cccc(N2C(=O)C3CC(CC(C)(C)C)c4c([nH]c5ccccc45)C3C2=O)c1 (stereo not given) | > 10 µM | > 10 µM | > 10 µM | > 10 µM | > 10 µM | > 10 µM | 8.42 µM | > 10 | > 10 µM | > 10 µM |
| N#Cc1c(N)nc2n[nH]c(N)c2c1-c1ccccc1 | > 100 µM | 46.1 µM | 79.5 µM | 24.7 µM | > 53.2 µM | > 100 µM | 21.1 µM | 20.4 | 3.9 µM | > 27.1 µM |
| COC(=O)[C@]1(C)[C@H]2C[C@H]3O[C@H]4[C@H](O)[C@@H](O)OC(CC(O)C(C5=CC(=O)OC5)C(C5=CC(=O)OC5)C(O)CC56CCCCC7[C@@H](C)[C@H](C[C@H]8[C@](C)(C(=O)OC)[C@H](O)CC[C@]78C)O[C@H]([C@@H](O)[C@H](O)O5)[C@H]6O)(CCCCC([C@@H]3C)[C@]2(C)CC[C@@H]1O)[C@H]4O (stereo not given in full) | 0.333 µM | 0.53 µM | 1.97 µM | 1.58 µM | 0.014 µM | 3.14 µM | 0.321 µM | 0.735 | 6.62 µM | 0.234 µM |
| O=C1CC(=O)NC(=NN2C(=O)/C(=C/c3ccc(Cl)cc3)N=C2c2ccccc2)N1 | 24.8 µM | 30.7 µM | 27.6 µM | 53.7 µM | 22.9 µM | 30.2 µM | 32.4 µM | 51.8 | > 100 µM | 43.2 µM |
| CC1=CC(=O)c2c(O)c3c(c(O)c2C1=O)C1C(O)C(C3=O)C23C(=O)c4c(O)c(C)cc(O)c4C(O)=C2C(=O)CC(O)C13 (stereo not given) | > 100 µM | 2.5 µM | 2.5 µM | 14.6 µM | 5.23 µM | 9.08 µM | 5.07 µM | 6.86 | 5.75 µM | 11.6 µM |
| CC1=C2CC(C)(C)CC(=O)C2(C)CCC1=O (stereo not given) | > 100 µM | > 100 µM | > 100 µM | > 100 µM | > 100 µM | > 100 µM | > 100 µM | > 100 | > 100 µM | > 100 µM |
| CCCCCC(/C=C/[C@@H]1[C@@H](C(O)CCCCCC(=O)OC)C(=O)C[C@H]1O[Si](C)(C)C(C)(C)C)OCOCCOC (stereo not given in full) | > 24.5 µM | 16.1 µM | 16.1 µM | > 47 µM | > 100 µM | 48 µM | 31 µM | 34 | 51.8 µM | 31.3 µM |
| COc1ccc2c(C(=O)c3c(C)n(CCN4CCOCC4)c4ccccc34)cccc2c1 | 27.1 µM | > 100 µM | 68.2 µM | 55.9 µM | > 100 µM | > 100 µM | > 100 µM | > 100 | > 100 µM | > 100 µM |
| Cc1cc(/N=C/c2ccc(Cl)cc2)n(-c2ccccc2)n1 | > 100 µM | > 100 µM | > 100 µM | > 100 µM | > 100 µM | > 100 µM | > 100 µM | > 100 | 79.4 µM | > 100 µM |
| Cc1cc(NS(=O)(=O)c2ccc(NC(=O)c3ccc4nc5ccccc5c(Nc5ccc(S(=O)(=O)Nc6cc(C)on6)cc5)c4c3)cc2)no1 | > 50 µM | > 50 µM | > 50 µM | > 50 µM | > 50 µM | > 50 µM | > 50 µM | > 50 | > 50 µM | > 50 µM |
| CC1=NNC(=O)[C@H]2[C@H]1CCC1[C@@H]2CC[C@]2(C)[C@@H](O)CC[C@@H]12 (stereo not given in full) | > 100 µM | > 100 µM | > 100 µM | > 100 µM | > 100 µM | > 100 µM | > 100 µM | > 100 | > 100 µM | > 100 µM |
| CO[C@]12C[C@@H](CNC(=O)c3cc(Br)c[nH]3)O[C@H]1NC(=O)N2 | > 100 µM | > 100 µM | > 100 µM | > 100 µM | > 100 µM | > 100 µM | > 100 µM | > 100 | > 100 µM | > 100 µM |
| C=CCCCCCCCCC(=O)ON(Cc1ccc(O)c(OC)c1)C(=O)C(F)(F)F | > 100 µM | > 100 µM | > 100 µM | > 100 µM | > 100 µM | > 100 µM | > 100 µM | > 100 | > 100 µM | > 100 µM |
| CCCCC1Cc2cc(OC)ccc2-c2n1c1cc(OC)ccc1[n+]2C (stereo not given) (tested in a mixture with another compound) | 25.3 µM | > 39.9 µM | 10.7 µM | 15.8 µM | 18.1 µM | 68.2 µM | > 44.9 µM | 54.1 | 45.1 µM | 31.9 µM |
| O=C1c2ccccc2-n2c1nc1ccc(Cl)cc1c2=O | 13.8 µM | > 100 µM | > 100 µM | > 100 µM | > 100 µM | > 100 µM | > 100 µM | > 100 | > 100 µM | > 100 µM |
